In patent publication US10011571B2, “Preparation method for aromatic heterocyclic compound used as selective JAK3 and/or JAK1 kinase inhibitor and application of aromatic heterocyclic compound” (SHENZHEN CHIPSCREEN BIOSCIENCES, LTD., priority 2014, dated 2018):
Where a name gives a salt, the structure may show the parent alone.

Key:
HeLa cells = experiment: Cell growth activity assay (MTS), HeLa cell model; assay type: cell-based, human; parameters: activity: dose or concentration left out as unconfirmed; conditions: Homo sapiens, HeLa, 72 h; for activity: read-out: HeLa % growth rate
Procedure, shortened: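 HeLa human cervical cancer cells were plated at about 5000 cells/well in a 96-well plate. After 24 h, test compounds were added in concentration gradients (highest final concentration 40 μM), alongside a DMSO solvent control and a negative control. After another 72 h, the medium was replaced with 100 μL fresh medium plus 20 μL MTS/PMS (20:1). Plates were incubated 2 h at 37° C. and absorbance was read at 490 nm to give growth inhibition and GI50.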

JAK2 = JAK2 (Homo sapiens (Human), UniProt O60674); experiment: Z'-LYTE enzymatic activity detection, JAK2; assay type: biochemical; conditions: test compound 30 nM; for inhibition at 0.03 µM: read-out: JAK2 % inhibitory rate @30 nM
Procedure, shortened: (§1)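 GST-tagged human recombinant kinases with Z′-LYTE peptides (Tyr6 for JAK1, Tyr4 for JAK2 and JAK3), ATP from kit, reacted 1 h at room temperature; development 1 h, ratio 445/520 nm at 400 nm excitation gives phosphorylation. Inhibition vs solvent control at 30 nM (JAK2, JAK3) or 300 nM (JAK1); tofacitinib as positive control.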

CTLL-2 cells = experiment: Cell growth activity assay (MTS), CTLL-2 cell model; assay type: cell-based, mouse; conditions: Mus musculus; for activity at 0.3 µM: CTLL-2, 300 nM, 24 h, read-out: CTLL-2 % growth rate @300 nM
Procedure, shortened: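 Mouse IL-2-dependent T-cell line seeded ~20,000 cells/well, compounds added after 24 h at gradient concentrations (top 10 μM; CTLL-2 evaluation at 300 nM), cultured another 24 h. MTS/PMS added, 2 h at 37° C, absorbance 490 nm; inhibition vs DMSO control after negative-control background subtraction, GI50 calculated; triplicate.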

JAK1 = JAK1 (Homo sapiens (Human), UniProt P23458); experiment: Z'-LYTE enzymatic activity detection, JAK1; assay type: biochemical; conditions: test compound 300 nM; for inhibition at 0.3 µM: read-out: JAK1 % inhibitory rate @300 nM
Procedure, shortened: as §1

JAK3 = JAK3 (Homo sapiens (Human), UniProt P52333); experiment: Z'-LYTE enzymatic activity detection, JAK3; assay type: biochemical; conditions: test compound 30 nM; for inhibition at 0.03 µM: read-out: JAK3 % inhibitory rate @30 nM
Procedure, shortened: as §1

HUVEC cells = experiment: Cell growth activity assay (MTS), HUVEC cell model; assay type: cell-based; conditions: Homo sapiens, 72 h; for activity at 10 µM: read-out: HUVEC % growth rate @10 μM
Text: MTS assay is a routine method for cell toxicity detection. The basic principle is based on the capacity of dehydrogenase in the mitochondria of living cells to reduce a novel yellow […] MTS to formazan, so that the amount of living cells is proportional to the amount of formazan product by detecting the absorbance at 490 nm (OD), thereby speculating the amount of living cells according to the OD value, and understanding the capacity of the test compound to inhibit the growth of cells or to kill the cells.
HeLa cell is a human cervical cancer cell line, and belongs to epithelial tumor cell line; HUVEC is a human umbilical vein endothelial cell, and belongs to primary endothelial cell; both types of cells express all subtypes except for JAK3.
The change of JAK kinase activity has no significant influence on other cell types except for the immune cells, and both cell models mentioned above are mainly used to evaluate whether there are any other kinase targets besides JAK kinases or there are nonselective cell toxicities.
In this experiment, a cultured cell model is incubated with the test compounds at different concentrations for a specific duration. The effect of the treatment by the test compound on the growth of cells is detected using MTS assay.
MTS is performed according to routine procedure in a 96-well plate.
The model cells are inoculated into each well of the 96-well plate at an appropriate concentration (about 5000 cells/well). After 24 h, the test compounds are added at different concentration gradients (the highest final concentration is 40 μM). A solvent control (DMSO) and a negative control are also performed at the same time. Each experiment is repeated for 3 times. The cells are detected after cultured for another 72 h.
After all culture medium is aspirated out of the well, 100 μL fresh medium and 20 μL pre-formulated mixture of MTS and PMS (in a ratio of 20:1) are added to each well. After incubation at 37° C. for 2 h, it is then detected by a microplate reader (490 nm).
The cell growth inhibitory rate and GI50 of the test compound are calculated as above.
Based on the above method, cytological evaluation is performed to the compounds described herein (for the detection of CTLL-2 cell, the concentration of the test compound is 300 nM; […]).

[1] = test system: collagen-induced arthritis (CIA) model of rats; experiment: Collagen-induced arthritis (CIA) model of rats; assay type: in vivo; conditions: rat CIA
Procedure: Objective: in this test, arthritis is induced by chicken collagen in Wistar rats. After in vivo administration of the compounds of Example 7 and Example 22, the change of the disease index for arthritis in rats is evaluated to determine the therapeutic effect of the test compounds on rat arthritis.
Experimental animals: 36 female Wistar rats were purchased from the animal experiment center, Sun Yat-Sen University (Guangzhou) with the body weight ranging from 180 to 200 g at the beginning of experiment. Four groups (8 rats in each group) were used as the arthritis model, and another group (4 rats) was used as normal control.
Materials: chicken type II collagen and Freund's complete adjuvant were purchased from Beijing Biolead Science and Technology Development Co., Ltd. Positive control: methotrexat (MTX).
Preparation method: the test compounds were prepared by adding them to freshly prepared 0.2% CMC-Na+0.1% Tween-80 solution in sterile water to a desired concentration and thoroughly mixing through ultrasound.
CIA model: the chicken collagen was fully emulsified in equal volume of freud's complete adjuvant, and subcutaneously injected at the tail root of the rat on day 0 for sensitization (250 μL/rat). Another injection was performed at the tail root on day 7 for supplementary immunization (100 μL/rat). After arthritis occurred (on about day 13), the rats were randomly divided into 4 groups with 8 rats in each group. Administration started on day 14 after the first immunization, and lasted for 14 days. The limbs of a rat were visually inspected, and the severity of arthritis was scored in a range from […]: 0=normal; 1=a slight symptom, with signs, such as red and swollen ankle or wrist; 2=moderate red and swollen ankle or wrist; 3=severe red and swollen paw, including toes; 4=severe swollen joint accompanied with dysfunction; the highest score for each rat was 16. The thickness of toes of posterior limbs and the paw volume were measured at the same time.
Medication: the rats were i.g. administered with the compound of Example 7 at a concentration of 40 mg/kg twice/day; or the rats were i.g. administered with the compound of Example 22 at a concentration of 40 mg/kg twice/day. For the positive control, 5 mg/kg MTX was intraperitoneally injected twice a week. The i.g. administration of solvent was used as the negative control. The data obtained 14 days after administration and before administration were compared.

[2] = 14 days after administration, Examples 40 mg/kg i.g. twice/day, MTX 5 mg/kg i.p. twice a week

JAK3, sequence (P52333 whole entry): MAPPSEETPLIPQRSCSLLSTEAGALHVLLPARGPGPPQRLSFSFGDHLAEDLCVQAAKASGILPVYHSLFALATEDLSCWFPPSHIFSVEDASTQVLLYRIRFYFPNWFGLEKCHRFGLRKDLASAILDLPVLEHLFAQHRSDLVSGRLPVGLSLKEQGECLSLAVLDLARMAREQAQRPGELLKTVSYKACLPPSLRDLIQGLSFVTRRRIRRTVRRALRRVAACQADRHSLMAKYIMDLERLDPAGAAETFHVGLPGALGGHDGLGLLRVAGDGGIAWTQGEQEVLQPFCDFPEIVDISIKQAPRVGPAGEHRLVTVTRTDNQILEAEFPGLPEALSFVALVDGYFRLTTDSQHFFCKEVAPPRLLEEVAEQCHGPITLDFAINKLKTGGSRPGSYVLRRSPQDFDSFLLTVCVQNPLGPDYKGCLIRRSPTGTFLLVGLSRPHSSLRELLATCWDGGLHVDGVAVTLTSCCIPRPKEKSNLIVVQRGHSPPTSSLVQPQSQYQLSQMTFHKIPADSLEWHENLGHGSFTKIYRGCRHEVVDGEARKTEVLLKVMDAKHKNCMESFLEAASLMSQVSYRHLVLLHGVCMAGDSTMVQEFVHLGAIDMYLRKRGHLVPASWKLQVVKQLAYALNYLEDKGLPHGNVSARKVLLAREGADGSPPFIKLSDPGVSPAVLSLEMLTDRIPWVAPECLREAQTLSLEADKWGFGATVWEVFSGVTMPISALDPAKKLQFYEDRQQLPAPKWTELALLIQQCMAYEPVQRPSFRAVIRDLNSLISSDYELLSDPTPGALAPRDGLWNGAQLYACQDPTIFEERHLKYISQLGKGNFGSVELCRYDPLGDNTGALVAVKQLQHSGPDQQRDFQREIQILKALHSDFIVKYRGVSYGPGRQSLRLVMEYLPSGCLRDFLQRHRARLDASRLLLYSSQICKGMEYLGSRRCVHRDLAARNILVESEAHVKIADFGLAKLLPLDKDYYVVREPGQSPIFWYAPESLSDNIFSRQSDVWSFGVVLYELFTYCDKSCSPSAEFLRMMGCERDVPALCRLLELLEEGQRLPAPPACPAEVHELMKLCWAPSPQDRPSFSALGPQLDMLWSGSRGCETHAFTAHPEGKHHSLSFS
JAK2, sequence (O60674 whole entry): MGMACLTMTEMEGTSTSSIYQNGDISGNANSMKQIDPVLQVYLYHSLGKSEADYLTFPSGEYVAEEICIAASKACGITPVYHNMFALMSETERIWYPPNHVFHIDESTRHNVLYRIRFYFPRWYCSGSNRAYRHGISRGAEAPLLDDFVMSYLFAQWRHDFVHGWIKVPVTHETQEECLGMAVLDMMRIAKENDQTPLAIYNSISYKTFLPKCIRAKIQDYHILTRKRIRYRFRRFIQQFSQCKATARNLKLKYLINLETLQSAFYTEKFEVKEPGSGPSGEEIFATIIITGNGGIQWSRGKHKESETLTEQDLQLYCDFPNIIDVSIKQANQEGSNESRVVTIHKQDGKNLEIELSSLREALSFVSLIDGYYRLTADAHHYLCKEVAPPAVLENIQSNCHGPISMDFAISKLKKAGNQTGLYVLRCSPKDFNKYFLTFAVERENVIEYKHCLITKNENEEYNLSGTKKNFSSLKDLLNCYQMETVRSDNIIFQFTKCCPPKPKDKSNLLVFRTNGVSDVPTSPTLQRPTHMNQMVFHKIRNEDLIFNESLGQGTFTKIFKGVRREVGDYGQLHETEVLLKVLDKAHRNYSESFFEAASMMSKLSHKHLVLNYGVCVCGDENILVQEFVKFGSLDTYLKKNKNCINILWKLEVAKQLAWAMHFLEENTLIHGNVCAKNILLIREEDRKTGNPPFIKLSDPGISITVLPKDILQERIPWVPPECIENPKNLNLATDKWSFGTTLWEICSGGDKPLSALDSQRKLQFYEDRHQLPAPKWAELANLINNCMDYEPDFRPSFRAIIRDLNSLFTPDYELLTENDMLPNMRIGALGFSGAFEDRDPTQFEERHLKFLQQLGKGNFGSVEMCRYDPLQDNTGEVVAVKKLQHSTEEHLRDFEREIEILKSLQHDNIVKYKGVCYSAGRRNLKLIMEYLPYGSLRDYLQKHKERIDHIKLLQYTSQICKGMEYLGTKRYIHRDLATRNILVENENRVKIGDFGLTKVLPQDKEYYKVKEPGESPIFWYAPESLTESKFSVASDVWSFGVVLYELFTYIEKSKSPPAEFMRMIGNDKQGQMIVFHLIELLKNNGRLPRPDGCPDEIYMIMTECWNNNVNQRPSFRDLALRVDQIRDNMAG
JAK1, sequence (P23458 whole entry): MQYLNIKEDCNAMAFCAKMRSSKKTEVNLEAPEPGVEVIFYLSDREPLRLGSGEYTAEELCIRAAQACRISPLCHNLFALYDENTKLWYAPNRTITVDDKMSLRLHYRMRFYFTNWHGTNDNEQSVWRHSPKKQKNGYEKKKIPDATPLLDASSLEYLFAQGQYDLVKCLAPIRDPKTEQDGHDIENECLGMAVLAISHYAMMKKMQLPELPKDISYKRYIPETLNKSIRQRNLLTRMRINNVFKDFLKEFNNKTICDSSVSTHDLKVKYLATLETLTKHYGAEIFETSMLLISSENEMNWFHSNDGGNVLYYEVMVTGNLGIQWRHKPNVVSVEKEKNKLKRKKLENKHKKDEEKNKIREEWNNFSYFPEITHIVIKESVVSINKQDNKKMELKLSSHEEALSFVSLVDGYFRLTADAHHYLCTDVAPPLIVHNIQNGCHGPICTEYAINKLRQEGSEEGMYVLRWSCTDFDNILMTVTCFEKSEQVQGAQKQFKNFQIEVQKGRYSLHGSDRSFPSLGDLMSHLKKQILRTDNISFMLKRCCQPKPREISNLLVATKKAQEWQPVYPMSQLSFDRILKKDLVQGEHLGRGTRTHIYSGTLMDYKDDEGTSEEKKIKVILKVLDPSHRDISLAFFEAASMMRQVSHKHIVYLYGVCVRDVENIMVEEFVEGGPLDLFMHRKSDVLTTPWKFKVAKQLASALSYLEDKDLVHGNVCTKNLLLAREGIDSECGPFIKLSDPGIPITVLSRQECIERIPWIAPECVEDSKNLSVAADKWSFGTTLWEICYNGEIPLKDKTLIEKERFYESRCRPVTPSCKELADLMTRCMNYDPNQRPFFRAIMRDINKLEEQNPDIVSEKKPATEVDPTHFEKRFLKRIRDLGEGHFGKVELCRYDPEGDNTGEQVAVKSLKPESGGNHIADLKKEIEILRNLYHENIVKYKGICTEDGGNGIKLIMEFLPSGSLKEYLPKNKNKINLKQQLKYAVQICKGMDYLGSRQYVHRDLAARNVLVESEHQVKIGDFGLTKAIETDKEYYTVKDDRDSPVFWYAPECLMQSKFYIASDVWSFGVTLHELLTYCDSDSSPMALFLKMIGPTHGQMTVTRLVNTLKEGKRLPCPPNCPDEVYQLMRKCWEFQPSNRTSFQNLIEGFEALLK

| JAK2 RV (ratio between the inhibitory rate of the test compound and that of Xeljanz) (JAK2) | inhibition at 0.03 µM (JAK2) [%] | JAK1 RV (ratio between the inhibitory rate of the test compound and that of Xeljanz) (JAK1) | inhibition at 0.3 µM (JAK1) [%] | JAK3 RV (ratio between the inhibitory rate of the test compound and that of Xeljanz) (JAK3) | inhibition at 0.03 µM (JAK3) [%] | GI50 (HeLa cells) [µM] | Compound | activity (HeLa cells) [%] | activity at 0.3 µM (CTLL-2 cells) [%] | activity at 10 µM (HUVEC cells) [%] | Inhibitory rate for arthritis score % [1, 2] [%] | Inhibitory rate for paw volume % [1, 2] [%] | Inhibitory rate for toe thickness % [1, 2] [%] | Body weight growth rate % ([1]; 14 days after administration, solvent = 100.0, Examples 40 mg/kg i.g. twice/day, MTX 5 mg/kg i.p. twice a week) [%] | toxicity to the rats judged from body weight ([1]; compared to the solvent group) | GI50 (CTLL-2 cells; CTLL-2, 24 h) [µM] | GI50 (HUVEC cells) [µM] |
| --- | --- | --- | --- | --- | --- | --- | --- | --- | --- | --- | --- | --- | --- | --- | --- | --- | --- |
|  | 0 |  | 39 |  | 59 |  | C=CC(=O)N(C)c1cc(Nc2ncc(C)c(NCCCNC(=O)c3ccc(F)cc3)n2)ccc1F [Example 19, 4-fluoro-N-(3-(2-(4-fluoro-3-(N-methylacrylamido)phenylamino)-5-methylpyrimidinyl-4-amino)propyl)benzamide] | 108 | 67 | 136 |  |  |  |  |  |  |  |
| 0.03 | 2 | 0.40 | 34 | 0.85 | 81 |  | C=CC(=O)Nc1cc(Nc2ncc(Cl)c(NCCCNC(=O)c3ccc(C#N)cc3)n2)ccc1F [Example 28, N-(3-(2-(3-acrylamido-4-fluorophenylamino)-5-chloropyrimidinyl-4-amino)propyl)-4-cyano-benzamide] | 81 | 77 | 98 |  |  |  |  |  |  |  |
| 0.03 | 2 | 0.57 | 49 | 0.94 | 89 |  | C=CC(=O)N(C)c1cc(Nc2ncc(Cl)c(NCCCNC(=O)c3ccc(N(C)C)cc3)n2)ccc1F [Example 32, N-(3-(5-chloro-2-(4-fluoro-3-(N-methylacrylamido)phenylamino)pyrimidinyl-4-amino)propyl)-4-dimethylamino benzamide] | 68 | 16 | 72 |  |  |  |  |  |  |  |
|  |  |  |  |  |  | > 40 | C[C@@H]1CCN(C(=O)CC#N)C[C@@H]1N(C)c1ncnc2[nH]ccc12 [Xeljanz, tofacitinib citrate, reference compound] |  |  |  |  |  |  |  |  | 0.067 | > 40 |

More lines, now with the values behind:

| Compound | JAK2 RV (ratio between the inhibitory rate of the test compound and that of Xeljanz) (JAK2) | inhibition at 0.03 µM (JAK2) [%] | JAK1 RV (ratio between the inhibitory rate of the test compound and that of Xeljanz) (JAK1) | inhibition at 0.3 µM (JAK1) [%] | JAK3 RV (ratio between the inhibitory rate of the test compound and that of Xeljanz) (JAK3) | inhibition at 0.03 µM (JAK3) [%] | GI50 (HeLa cells) [µM] | activity (HeLa cells) [%] | activity at 0.3 µM (CTLL-2 cells) [%] | activity at 10 µM (HUVEC cells) [%] | Inhibitory rate for arthritis score % [1, 2] [%] | Inhibitory rate for paw volume % [1, 2] [%] | Inhibitory rate for toe thickness % [1, 2] [%] | Body weight growth rate % ([1]; 14 days after administration, solvent = 100.0, Examples 40 mg/kg i.g. twice/day, MTX 5 mg/kg i.p. twice a week) [%] | toxicity to the rats judged from body weight ([1]; compared to the solvent group) | GI50 (CTLL-2 cells; CTLL-2, 24 h) [µM] | GI50 (HUVEC cells) [µM] |
| --- | --- | --- | --- | --- | --- | --- | --- | --- | --- | --- | --- | --- | --- | --- | --- | --- | --- |
| C=CC(=O)Nc1cc(Nc2ncc(Cl)c(NCCCNC(=O)c3ccc(F)cc3)n2)ccc1F [Example 17, N-(3-(2-(3-acrylamido-4-fluoro-phenylamino)-5-chloropyrimidinyl-4-amino)propyl)-4-fluorobenzamide] | 0.03 | 1 | 0.93 | 79 | 0.97 | 84 |  | 1 | 20 | 1 |  |  |  |  |  |  |  |
| C=CC(=O)N(C)c1cc(Nc2ncc(C)c(NCCCNC(=O)c3ccc(C(F)(F)F)cc3)n2)ccc1F [Example 21, N-(3-(2-(4-fluoro-3-(N-methylacrylamido)phenylamino)-5-methylpyrimidinyl-4-amino)propyl)-4-trifluoromethylbenzamide] | 0.07 | 2 | 0.69 | 59 | 0.82 | 71 |  | 94 | 57 | 102 |  |  |  |  |  |  |  |
| C=CC(=O)N(C)c1cc(Nc2ncc(Cl)c(NCCCNC(=O)C3CCN(C)CC3)n2)ccc1F [Example 27, N-(3-(5-chloro-2-(4-fluoro-3-(N-methylacrylamido)phenylamino)pyrimidinyl-4-amino)propyl)-1-methylpiperidinyl-4-formamide] |  |  | 0.45 | 42 | 0.59 | 35 |  | 30 | 85 | 6 |  |  |  |  |  |  |  |
| CN(Cc1cnc2nc(N)nc(N)c2n1)c1ccc(C(=O)N[C@@H](CCC(=O)O)C(=O)O)cc1 [MTX, methotrexate, reference compound] |  |  |  |  |  |  |  |  |  |  | 73.1 | 43.1 | 70.2 | 95.4 | certain toxicity |  |  |
